The source of these data is patent US12544547B2, “Gelatin-based microneedle patch for minimally-invasive extraction of bodily fluids” (THE REGENTS OF THE UNIVERSITY OF CALIFORNIA, priority 2020, dated 2026).

Data set [1] is described as follows: In vivo vancomycin detection in ISF versus plasma after intravenous vancomycin. On the set-up: species or system Wistar rats. The following applies: Wistar, rat, 1 mg/rat; for concentration at 5 min: 5 min after intravenous injection; for concentration at 30 min / concentration at 60 min: intravenous; for concentration at 30 min: 30 min following injection; for concentration at 60 min: 60 min after injection. The protocol: In vivo collection of ISF and glucose and vancomycin detection: All animal experiments were approved by the Animal Care and Use Committee of University of California, Los Angeles, and procedures for animals were performed in accordance with the relevant guidelines and regulations. Wistar rats (4-week-old, approximately 70-80 g) were anesthetized with 50 mg/kg sodium pentobarbital. The dorsal hair of each rat was shaved. After the initial mass of the GelMA patch 10 was weighed, it was applied to the dorsal skin of the rat using the thumb and index finger. Gauze was used to fix the patches 10 on the skin. ten minutes later, the patch 10 was removed and the final mass was recorded. To quantify the concentration of the delivered molecules, the wet patch 10 was transferred into a centrifuge tube with 200 μL of DI water. After centrifugation at 12000 rpm for 10 min, the solution in the tube was transferred to be tested. In addition, blood samples were also collected from the tail vein for glucose detection and the plasma was isolated via centrifugation for vancomycin detection. For histopathology, the skin was harvested and fixed in 10% neutral buffered formalin (BBC Biochemical, WA, USA), processed by a standard method, and embedded in paraffin. 4 μm in thickness tissue sections were stained with hematoxylin and eosin (H&E, BBC Biochemical) to confirm that GelMA microneedles 14 effectively penetrate the skin.
In the glucose detection experiment, the rats were intravenously injected with 1 mL of 0.2 g/mL glucose in saline. The glucose concentrations in ISF were tested using Glucose Assay Kit (Sigma) and the glucose levels in blood were tested using a glucometer (Clarity Diagnostics, US). In the vancomycin detection experiment, the rats were intravenously injected with 1 mL vancomycin at a concentration of 1 mg/mL in saline. The vancomycin concentration in ISF and plasma samples was also quantified by LC-MS/MS analysis (mentioned above).

On the set-up of data set [2]: species or system Wistar rats. The following applies: rat, in vivo.
[3] abbreviates: interstitial fluid (ISF), read-out: vancomycin concentration in ISF.
The mark [4] stands for this setting: plasma, read-out: vancomycin concentration in plasma.

Like-named read-outs stand apart in the source and are kept apart here.

On to `CN[C@H](CC(C)C)C(=O)N[C@H]1C(=O)N[C@@H](CC(N)=O)C(=O)N[C@H]2C(=O)N[C@H]3C(=O)N[C@H](C(=O)N[C@H](C(=O)O)c4cc(O)cc(O)c4-c4cc3ccc4O)[C@H](O)c3ccc(c(Cl)c3)Oc3cc2cc(c3O[C@@H]2O[C@H](CO)[C@@H](O)[C@H](O)[C@H]2O[C@H]2C[C@](C)(N)[C@H](O)[C@H](C)O2)Oc2ccc(cc2Cl)[C@H]1O` [vancomycin], for which, in data set [1] (setting [3]), the concentration at 5 min came out at 5930 ± 180 ng/mL, the concentration at 30 min is ~6500 ng/mL and the concentration at 60 min is ~4000 ng/mL. Moreover, in data set [1] (setting [4]), the concentration at 5 min turned out to be 8270 ± 130 ng/mL, the concentration at 30 min is ~6500 ng/mL and the concentration at 60 min was ~4000 ng/mL.

On to “gelatin methacryloyl (GelMA) [GelMA microneedle patch]”, for which the “skin recovery time after removing the patch” value in data set [2] is ≤ 20 min.
